Experimental data as given in patent publication US8361507B2, “Eprosartan mesylate crystalline particles and a process for preparing pure eprosartan” (Hetero Drugs Limited, priority 2007, dated 2013).
Structures can show the parent of a compound that is named as a salt.

Columns and labels:
[1] = Particle size distribution by laser diffraction (Sympatec Helos); type: physicochemical; settings: crystalline particles
From the text: As used herein “Particle Size Distribution (P.S.D.)” means the cumulative volume size distribution of equivalent spherical diameters as determined by laser diffraction at 1 bar dispersive pressure in a Sympatec Helos equipment. “Mean particle size distribution, i.e., d(0.5)” correspondingly, means the median of said particle size distribution.

[2] = Specific surface area by Brunauer-Emmett-Teller (B.E.T.) nitrogen absorption; type: physicochemical; settings: B.E.T. method, crystalline particles
From the text: Specific surface area is defined in units of square meters per gram (m^2/g). It is usually measured by nitrogen absorption analysis. In this analysis, nitrogen is absorbed on the surface of the substance. The amount of the absorbed nitrogen (as measured during the absorption or the subsequent desorption process) is related to the surface area via a formula known as the B.E.T. formula.

[3] = crystalline particles disclosed in WO 00/53282; cited from earlier work
[4] = cited from earlier work

| Structure (SMILES) | 90 volume-% of the particles (D90) [1] | Mean particle size (D50) [1] | Specific Surface Area [2] | d90 value [3] | solubility in methanol ([4]; methanol) | solubility in water ([4]; water) |
| --- | --- | --- | --- | --- | --- | --- |
| CCCCc1ncc(/C=C(\Cc2cccs2)C(=O)O)n1Cc1ccc(C(=O)O)cc1 [Example 4, eprosartan mesylate] | 30.42 μm | 11.23 μm | 1.11 m^2/g | – | – | – |
| CCCCc1ncc(/C=C(\Cc2cccs2)C(=O)O)n1Cc1ccc(C(=O)O)cc1 [eprosartan mesylate, (αE)-α-[[2-n-Butyl-1-[(4-carboxyphenyl)methyl]-1H-imidazol-5-yl]methylene-2-thiophenepropanoic acid monomethanesulfonate] | – | – | below 0.6 m^2/g | less than 10 micron | soluble | practically insoluble |
| CCCCc1ncc(/C=C(\Cc2cccs2)C(=O)O)n1Cc1ccc(C(=O)O)cc1 [Example 2, eprosartan mesylate] | 33.48 μm | 12.13 μm | 1.09 m^2/g | – | – | – |
| CCCCc1ncc(/C=C(\Cc2cccs2)C(=O)O)n1Cc1ccc(C(=O)O)cc1 [Reference Example 3, eprosartan mesylate] | 213.72 μm | 70.56 μm | 0.53 m^2/g | – | – | – |
